Assay results from PubChem BioAssay (NCI).
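Compound exposure: 48 hours, 5 concentrations, 96-well plates. Definition used: TGI = concentration required for complete inhibition of growth.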

Key:
Experiment in all cases: NCI-60 cell line screen, 48 h
[1] = system: 786-0 renal
[2] = system: A498 renal
[3] = system: A549 NSCLC
[4] = system: ACHN renal
[5] = system: CCRF-CEM leukemia
[6] = system: COLO 205 colon
[7] = system: HCT-116 colon
[8] = system: HOP-62 NSCLC
[9] = system: M14 melanoma
[10] = system: MDA-MB-231 breast
[11] = system: MOLT-4 leukemia
[12] = system: NCI-H522 lung
[13] = system: OVCAR-3 ovarian
[14] = system: OVCAR-4 ovarian
[15] = system: OVCAR-8 ovarian
[16] = system: RXF 393 renal
[17] = system: SN12C renal
[18] = system: T-47D breast
[19] = system: U251 CNS
[20] = system: UACC-257 melanoma

SMILES	TGI [1] [µM]	TGI [2] [µM]	TGI [3] [µM]	TGI [4] [µM]	TGI [5] [µM]	TGI [6] [µM]	TGI [7] [µM]	TGI [8] [µM]	TGI [9] [µM]	TGI [10] [µM]	TGI [11] [µM]	TGI [12] [µM]	TGI [13] [µM]	TGI [14] [µM]	TGI [15] [µM]	TGI [16] [µM]	TGI [17] [µM]	TGI [18] [µM]	TGI [19] [µM]	TGI [20] [µM]
COC(=O)[C@]12CCC(C)(C)C[C@H]1[C@H]1C(=O)C=C3[C@@]4(C)C=C(C#N)C(=O)C(C)(C)[C@@H]4CC[C@@]3(C)[C@]1(C)CC2	0.415	0.114	1.29	0.0639	> 100	0.122	0.0441	0.0547	0.0876	0.106	1.56	> 100	0.0615	> 7.76	0.0414	> 100	0.187	0.159	0.0744	0.0795
Nc1nc(NCC2(CO)CC2)cc(=O)[nH]1	> 100	> 100	> 100	> 100	> 100	> 100	> 100	> 100	> 100	> 100	> 100	> 100	> 100	> 100	> 100	> 100	> 100	> 100	> 100	> 100
O=C1C=CC(=O)c2c1ccc1c3ccccc3n(-c3cccc([N+](=O)[O-])c3)c21	3.58	> 10	> 10	3.36	0.82	3.21	3.91	> 10	3.86	5.81	1.07	3.57	4.57	> 5.95	> 8.25	4.48	> 10	5.67	> 10	7.38
CC(C(=O)OCc1ccccc1)(c1ccco1)N1C(=O)OC(c2ccccc2)C1c1ccccc1 (stereo not given)	> 100	> 100	> 100	> 100	> 100	> 100	> 100	> 100	> 100	> 100	> 100	> 100	> 100	> 100	> 100	> 100	> 100	> 100	> 100	> 100
COc1ccc2c(c1)C(=O)OCCC2	> 100	> 100	> 100	> 100	> 100	> 100	> 100	> 100	> 100	> 100	> 100	> 100	> 100	> 100	> 100	> 100	> 100	> 100	> 100	> 100
O=c1oc2ccccc2cc1-c1cn2ccccc2n1	13.4	6.49	21	11.4	> 22.5	> 100	30.1	14.8	28.9	18.5	> 80.8	17.3	14.3	> 42.1	10.7	13.8	17.7	34.6	5.66	14.3
COC(=O)C1=C(C(=O)Nc2cccnc2Cl)N(c2ccc(OC)cc2[N+](=O)[O-])C(c2ccc(C)cc2)=CC1c1ccc(OC)cc1OC (stereo not given)	> 87.7	50.6	40.9	> 81.6	> 36.8	31.9	98.7	68	> 72.5	62.1	49.3	26.3	43.7	> 100	31.1	22.2	35	88.3	40.3	> 100
CCCCSC1=N/C(=C\c2ccco2)C(Cl)=N1	> 100	> 100	> 100	> 100	> 100	> 100	> 100	> 100	> 100	> 100	> 100	> 100	> 100	> 100	> 100	> 100	> 100	> 100	> 100	> 100
CC(=O)O[C@H]1CC[C@@]2(C)C(=CC[C@@H]3[C@@H]2CC[C@]2(C)NC(=O)/C(=C\c4ccccc4)C[C@@H]32)C1	41.4	27.6	38.5	76.1	55.4	38.5	46.9	30.1	30.5	53	> 100	31.7	28.9	43.8	45	27.8	42	69.2	37.6	43.9
Fc1ccc(C(=C2CCN(CCc3ccc4[nH]c(=S)[nH]c4c3)CC2)c2ccc(F)cc2)cc1	3.61	25	> 40.5	24.1	> 20.6	3.31	3.47	38.6	2.9	15	> 27.8	3.65	4.23	12.7	8.26	3.49	9.25	4.1	11.3	2.4
O=C1c2cccc3cccc(c23)C2NCCCN12 (stereo not given)	> 100	> 100	> 100	> 100	> 100	> 100	> 100	> 100	> 100	> 100	> 100	80.4	> 100	> 100	> 100	> 100	> 100	> 100	> 100	> 100
